Measurements taken from ChEMBL document CHEMBL2007661, “Compounds: GSK PKIS; Assays: UNC Frye lab” (2012).
Where “and” joins values, the source holds several entries; their conditions need not be identical. Equal values may be shown once.

How the values were obtained:
[1] = molecular target: T1, Inhibitor of nuclear factor kappa-B kinase subunit alpha (Homo sapiens) (UniProt O15111); conditions: at 1 µM
T1 sequence (whole entry): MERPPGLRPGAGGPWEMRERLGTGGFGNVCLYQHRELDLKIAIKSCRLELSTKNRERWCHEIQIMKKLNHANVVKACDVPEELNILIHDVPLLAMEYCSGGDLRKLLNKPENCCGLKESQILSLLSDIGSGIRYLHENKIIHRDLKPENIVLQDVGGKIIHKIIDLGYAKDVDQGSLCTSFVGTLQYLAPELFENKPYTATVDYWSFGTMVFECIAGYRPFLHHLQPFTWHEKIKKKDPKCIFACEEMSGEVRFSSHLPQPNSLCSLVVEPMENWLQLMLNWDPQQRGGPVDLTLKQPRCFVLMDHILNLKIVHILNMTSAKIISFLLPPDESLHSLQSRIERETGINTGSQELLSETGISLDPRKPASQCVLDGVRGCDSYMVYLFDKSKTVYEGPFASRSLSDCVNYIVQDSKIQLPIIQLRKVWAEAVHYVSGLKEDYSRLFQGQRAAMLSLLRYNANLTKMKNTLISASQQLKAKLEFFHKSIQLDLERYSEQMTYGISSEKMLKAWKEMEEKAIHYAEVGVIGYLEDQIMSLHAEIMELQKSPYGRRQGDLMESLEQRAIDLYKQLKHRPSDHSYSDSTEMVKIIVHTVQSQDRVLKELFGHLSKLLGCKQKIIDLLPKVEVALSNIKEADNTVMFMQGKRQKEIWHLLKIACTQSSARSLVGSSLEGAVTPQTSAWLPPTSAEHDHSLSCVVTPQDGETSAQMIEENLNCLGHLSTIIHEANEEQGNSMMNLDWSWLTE

[2] = molecular target: T2, Inhibitor of nuclear factor kappa-B kinase subunit beta (Homo sapiens) (UniProt O14920); conditions: at 1 µM
T2 sequence (whole entry): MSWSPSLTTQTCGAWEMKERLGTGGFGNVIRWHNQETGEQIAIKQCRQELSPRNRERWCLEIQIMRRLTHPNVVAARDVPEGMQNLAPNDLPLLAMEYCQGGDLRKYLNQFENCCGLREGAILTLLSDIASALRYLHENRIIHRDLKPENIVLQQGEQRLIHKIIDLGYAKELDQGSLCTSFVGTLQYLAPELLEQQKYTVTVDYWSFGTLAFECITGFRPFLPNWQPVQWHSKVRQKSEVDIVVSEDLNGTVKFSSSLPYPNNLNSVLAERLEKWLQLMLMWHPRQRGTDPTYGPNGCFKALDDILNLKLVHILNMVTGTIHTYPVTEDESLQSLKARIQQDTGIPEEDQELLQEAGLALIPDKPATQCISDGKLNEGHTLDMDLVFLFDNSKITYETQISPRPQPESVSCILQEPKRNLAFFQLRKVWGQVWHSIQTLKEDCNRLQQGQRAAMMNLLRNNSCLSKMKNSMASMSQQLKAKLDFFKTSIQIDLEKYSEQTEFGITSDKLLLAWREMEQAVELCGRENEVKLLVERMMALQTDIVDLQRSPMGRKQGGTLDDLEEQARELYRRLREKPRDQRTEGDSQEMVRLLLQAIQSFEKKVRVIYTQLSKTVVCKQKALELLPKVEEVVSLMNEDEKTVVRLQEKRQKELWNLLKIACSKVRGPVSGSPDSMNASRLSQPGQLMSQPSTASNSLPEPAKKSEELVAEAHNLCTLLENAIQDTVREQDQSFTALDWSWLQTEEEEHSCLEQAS

inhibition [1]	inhibition [2]	SMILES
1% and -1%	-2% and -1%	NS(=O)(=O)c1ccc(Nc2cc(-c3ccc(O)c(F)c3)n[nH]2)cc1
5% and 7%	2%	O=C(Nc1n[nH]c2nnc(-c3cccnc3)cc12)C1CC1
-3%	-3% and 0%	CCn1cc(-c2ccnc3[nH]ccc23)c(-c2cccc(NC(=O)Nc3ccc(OCc4ccccc4)cc3)c2)n1
40% and 38%	-6% and -2%	NCc1ccc(-n2c(-c3nonc3N)nc3cnccc32)cc1
-4% and -9%	0% and -1%	CC(C)COC(=O)c1ccc2c(c1)/C(=C/Nc1ccc(S(N)(=O)=O)cc1)C(=O)N2
-1%	0% and 1%	O=C(Nc1ccc(Oc2ccc3[nH]c(NC(=O)c4ccco4)nc3c2)cc1)Nc1cc(C(F)(F)F)ccc1F
3% and 2%	-7% and -6%	CCc1ccc(Oc2nccc(-c3c(-c4ccc(F)cc4)ncn3C3CCNCC3)n2)cc1
-7%	0% and -2%	COC(=O)c1ccc2c(c1)C(=Cc1cc(Br)c(O)c(Br)c1)C(=O)N2
3%	-7% and -9%	Nc1ncnc2occ(-c3ccc(NC(=O)Nc4cccc(C(F)(F)F)c4)cc3)c12
1% and 0%	-7% and -5%	COc1cccc(-n2ncc3c(N/N=C/c4cccc(F)c4)ncnc32)c1
2% and 0%	-2% and -6%	COc1ccc(C2=C(N3CCc4ccccc43)C(=O)NC2=O)cc1
-3% and -2%	-2% and 0%	COC(=O)Nc1nc2ccc(Oc3ccc(NC(=O)Nc4cccc(Cl)c4)cc3)cc2[nH]1
-1% and -3%	-1% and -4%	CS(=O)(=O)Nc1ccc(-c2cc(-c3ccccc3)cc(C(N)=O)c2N)cc1
4% and 2%	-4% and -5%	COc1cc(Nc2ncc3c(C)nc(-c4cccc(C(F)(F)F)c4)n3n2)cc(OC)c1OC
12% and 15%	2%	COc1cc(C=NNc2ncnc3c2cnn3-c2ccccc2)ccc1O
6% and 5%	-2%	CCn1c(-c2nonc2N)nc2c(C#CC(C)(C)O)nc(OCCNC)cc21
1% and -1%	-5% and -3%	CS(=O)(=O)CCNCc1ccc(-c2ccc3ncnc(Nc4ccc(OCc5ccccc5)c(C(F)(F)F)c4)c3c2)o1
1% and 0%	-1% and -4%	NC(=O)c1sc(-n2cnc3ccc(C(F)(F)F)cc32)cc1OCc1ccccc1Br
4% and 3%	-2% and 2%	NS(=O)(=O)c1ccc(Nc2ncc(-c3ccccc3)o2)cc1
3%	-2% and 0%	C[C@@H](Oc1cc(-n2cnc3ccc(OCC4CCN(C)CC4)cc32)sc1C(N)=O)c1ccccc1C(F)(F)F

inhibition [1]	inhibition [2]	SMILES
4% and -3%	-1% and -3%	CNC(=O)c1cncc(/C=C/c2ccccc2C)c1
7% and 6%	-3%	COc1cccc(-n2nc(C)c3c(N/N=C(\C)c4ccncc4)ncnc32)c1
-1% and 3%	0% and -2%	Cc1nnc(-c2ccc(C)c(-c3ccc(C(=O)Nc4cccc(C#N)c4)cc3)c2)o1
2% and 9%	-2% and -4%	COc1cc(N2CCN(C(C)C)CC2)ccc1Nc1nc(Nc2cccc3ncccc23)c2cc[nH]c2n1
2% and -3%	-3% and 4%	COc1cccc(-n2cnc3c(N/N=C/c4ccncc4)ncnc32)c1
2% and -1%	-4% and -10%	CC(C)c1ccc(Nc2nccc(-c3cnn4ncccc34)n2)cc1
1% and 0%	15% and 0%	COc1cc(Nc2ncc(-c3ccccc3)o2)cc(OC)c1OC
4% and 3%	-6%	CS(=O)(=O)Nc1cccc(-c2ccc3c(NC(=O)C4CC4)n[nH]c3c2)c1
29% and 33%	-3% and 2%	Nc1nonc1-c1nc2cnccc2n1C1CC1
2% and -1%	-1% and -5%	CCCN(CCS(C)(=O)=O)Cc1ccc(-c2ccc3ncnc(Nc4ccc(OCc5cccc(F)c5)c(Cl)c4)c3c2)o1
5%	-4% and -7%	Nc1nc(-c2ccccn2)c(-c2ccc3ncccc3n2)s1
1%	-2% and 2%	Cc1nc(-c2ccccc2)n2nc(NCCCN3CCOCC3)ncc12
-1% and 0%	-3% and 2%	CN1CCC(n2cnc(-c3ccc(F)cc3)c2-c2ccnc(Nc3ccccc3)n2)CC1
2% and 0%	-5% and -3%	c1ccc(-c2nc3n(c2-c2ccc4c(c2)OCO4)CCC3)nc1
0%	-1% and 0%	NS(=O)(=O)c1ccc(N/N=C2\C(=O)Nc3ccc(C(=O)NCc4ccncc4)cc32)cc1
-7% and 1%	-2%	CC(C)(CO)CNC(=O)c1ccc2c(c1)/C(=N/Nc1ccc(S(N)(=O)=O)cc1)C(=O)N2
2% and 1%	4% and -2%	CN(C)C(=O)O[C@H]1CN[C@H](C#Cc2cc3ncnc(Nc4ccc(OCc5cccc(F)c5)c(Cl)c4)c3s2)C1
1% and 0%	-3% and -1%	COc1cc2ncn(-c3cc(OCc4ccccc4C(F)(F)F)c(C(=O)N(C)C)s3)c2cc1OC
3%	-2% and -3%	CS(=O)(=O)CCNCc1ccc(-c2ccc3ncnc(Nc4ccc(OCc5ccccc5)cc4)c3c2)o1
7% and 5%	-5%	Fc1ccc(-c2nn3ccccc3c2-c2ccncc2)cc1

inhibition [1]	inhibition [2]	SMILES
3% and 2%	-6% and -5%	CCn1c(-c2nonc2N)nc2c(N3CCCC3)nccc21
3% and 0%	-2% and 4%	CCCN1CCC(c2ccc(Nc3nc(Nc4cc(F)ccc4C(N)=O)c4cc[nH]c4n3)c(OC)c2)CC1
1% and 0%	-2% and -4%	Nc1nccc(-c2c(-c3ccc(F)cc3)nn3cc(C(F)(F)F)ccc23)n1
8% and 2%	1%	CS(=O)(=O)CCNCc1ccc(-c2ccc3ncnc(Nc4ccc(OCc5ccccc5)c(Cl)c4)c3c2)o1
-9% and 5%	-4% and -3%	CCN1CCC(CC(=O)Nc2n[nH]c3nc(-c4cccs4)c(Br)cc23)CC1
2% and 3%	-6% and -5%	COC(=O)Nc1nc2ccc(S(=O)(=O)c3ccc(NC(=O)Nc4cc(C(F)(F)F)ccc4F)cc3)cc2[nH]1
3%	-3% and -4%	CC1(C)CC(n2cnc(-c3ccc(F)cc3)c2-c2ccnc(N)n2)CC(C)(C)N1
14% and 7%	-4% and -3%	OCc1ccc(-c2nc(-c3ccccn3)c(-c3ccc4c(c3)OCO4)[nH]2)cc1
6% and 5%	-5% and -3%	CNC(=O)c1ncccc1Nc1nc(Nc2cc3c(cc2OC)CCCN3C(=O)CN(C)C)nc2[nH]ccc12
-8% and 0%	-2% and 4%	Cc1nn(C)c2cc(N(C)c3ccnc(Nc4cccc(S(N)(=O)=O)c4)n3)ccc12
6% and -8%	2%	CC1=C(C(=O)Nc2ccc3[nH]ncc3c2)C(c2ccc(Cl)c(Cl)c2)CC(=O)N1 (stereo not drawn)
-3% and -4%	-1%	NS(=O)(=O)c1ccc(N/N=C2\C(=O)Nc3ccc(C(=O)NCCCn4ccnc4)cc32)cc1
4% and 2%	-8%	Nc1nc(-c2ccc3c(c2)C(=Cc2cc(Br)c(O)c(Br)c2)C(=O)N3)cs1
4% and 3%	-4% and -7%	O=C(O[C@H]1CN[C@H](C#Cc2cc3ncnc(Nc4ccc5c(cnn5Cc5ccccc5)c4)c3s2)C1)N1CCOCC1
2% and 4%	-4% and -1%	Cc1cccc(-c2n[nH]cc2-c2ccc3ncccc3n2)n1
5% and 3%	1% and -3%	COc1cccc(-n2ncc3c(N/N=C/c4ccc(F)cc4)ncnc32)c1
11%	-2% and 2%	O=C(Nc1ccc(Oc2ccc3[nH]c(NC(=O)c4ccccc4)nc3c2)cc1)Nc1cc(C(F)(F)F)ccc1F
3%	-6%	COc1cc2c(cc1Nc1nc(N3CCc4ccccc43)c3cc[nH]c3n1)N(C(=O)CN(C)C)CC2
4% and 12%	0% and -2%	O=S(=O)(CCNCc1ccc(-c2ccc3ncnc(Nc4ccc(OCc5cccc(F)c5)c(Cl)c4)c3c2)o1)c1ccccc1
